Test results: patent EP0471358B1, “Fluoroethylcamptothecin derivatives” (KYORIN PHARMACEUTICAL CO., LTD., priority 1990, dated 1992)

These compounds were tested on P388 leukemia (assay: Antineoplastic effect for P388 leukemia mice (survival, T/C)). Details: Total dose 20 mg/kg; dosed to the abdominal cavity 1, 5 and 9 days after transplantation of 10⁶ P388 cells; average survival days of dosed vs non-dosed group.
Assay type: in vivo, CDF₁ mice
Protocol: P388 cells of 10⁶ in number were transplanted into abdominal cavity of CDF₁ mice of approximately 9 week-age (female, Non-dosed group: 5 - 8 mice, group dosed with the test compound: 1 - 5 mice). One, five, and nine days after the transplantation, the test compound which was dissolved or suspended in 1% Tween 80 (Kanto Chemical Inc.)/physiological saline was dosed to the abdominal cavity. The antineoplastic effect of the test compounds are shown by the T/C value (%) derived from the formula below. (T)/(C)(%) =(Average survival days of dosed group)/(Average survival days of non-dosed group)x 100 [formula]

Structure (SMILES) | T/C (%)
O=C1OCc2c(cc3n(c2=O)Cc2c-3nc3ccc(Cl)c4c3c2CCC4)C1(O)CCF (stereo not shown) [Example 24, 4-chloro-9-(2-fluoroethyl)-2,3-dihydro-9-hydroxy-1H,12H-benzo[d,e]pyrano[3',4':6,7]indolizino[1,2-b]quinoline-10,13(9H,15H)-dione] | 385
CC[C@@]1(O)C(=O)OCc2c1cc1n(c2=O)Cc2cc3ccccc3nc2-1 [Camptothecin] | 218
CCc1c2c(nc3ccc([N+](=O)[O-])cc13)-c1cc3c(c(=O)n1C2)COC(=O)C3(O)CCF (stereo not shown) [Example 16, 11-ethyl-4-(2-fluoroethyl)-4-hydroxy-9-nitro-1H-pyrano[3',4':6,7]indolizino[1,2-b]quinoline-3,14(4H,12H)-dione] | 345
CCc1c2c(nc3ccc(C)cc13)-c1cc3c(c(=O)n1C2)COC(=O)C3(O)CCF (stereo not shown) [Example 11, 11-ethyl-4-(2-fluoroethyl)-4-hydroxy-9-methyl-1H-pyrano[3',4':6,7]indolizino[1,2-b]quinoline-3,14(4H,12H)-dione] | 483

Same assay, conditions: Total dose 30 mg/kg; dosed to the abdominal cavity 1, 5 and 9 days after transplantation of 10⁶ P388 cells; average survival days of dosed vs non-dosed group

Structure (SMILES) | T/C (%)
Cc1c2c(nc3ccccc13)-c1cc3c(c(=O)n1C2)COC(=O)C3(O)CCF (stereo not shown) [Example 41, 4-[2-fluoroethyl)-4-hydroxy-11-methyl-1H-pyrano[3',4':6,7]indolizino[1,2-b]quinoline-3,14(4H,12H)-dione] | 386
CCOc1ccc2nc3c(c(CC)c2c1)Cn1c-3cc2c(c1=O)COC(=O)C2(O)CCF (stereo not shown) [Example 26, 9-ethoxy-11-ethyl-4-[2-fluoroethyl)-4-hydroxy-1H-pyrano[3',4':6,7]indolizino[1,2-b]quinoline-3,14(4H,12H)-dione] | 583
CCc1ccc2nc3c(c(CC)c2c1)Cn1c-3cc2c(c1=O)COC(=O)C2(O)CCF (stereo not shown) [Example 25, 9,11-diethyl-4-(2-fluoroethyl)-4-hydroxy-1H-pyrano[3',4':6,7]indolizino[1,2-b]quinoline-3,14(4H,12H)-dione] | 345
